Results on one molecule are retold here after patent US20040116523A1, “Use of c4-c10 acids for preventing gram-negative bacterial infections” (priority 2000, published 2004).

The test system of assay [1] is iagA′-lacZcat fusion in S. typhi strain Ty267. The assay is described as follows: "Biotype 100" plate screen for carbon-based substrates that repress the iagA′-lacZcat fusion (β-galactosidase activity). Conditions: "Biotype 100" cupule, amount of substrate not known; favourable LB medium; 36 hours at 37° C.; control cupule without substrate 11 250. It is filed as cell-based. As for the experimental part:
(§1) Each of the strains described above was cultured at 37° C. on agar or in TCS broth. The P-galactosidase activity was determined using 4-methyl-umbelliferyl-p-D-galactopyranoside sold by the company Sigma, according to the technique of Klarsfeld et al. (Mol. Mibrobiol., 1994, 13, 585-597). The results, expressed in P-galactosidase units (fluorescence per hour and per OD600), represent the mean of the values obtained in at least three independent experiments. The standard deviations were less than 10% of the values presented.
A “Biotype 100”® plate sold by the company BioMerieux is composed of 100 microcupules. Each micro-cupule contains a dehydrated carbon-based substrate, with the exception of the first cupule, which is a control without substrate (the amount of dehydrated substrate per cupule is not given by the manufacturer).
In the context of the present example, these plates were used to search for carbon-based compounds which would block the expression of the invasion genes in Salmonella.
For this, the S. typhi strain Ty267, which is a derivative of the parental strain Ty2 carrying the iagA′-lacZcat transcriptional fusion (Table I), was cultured in TCS broth for 18 hours at 37° C. with shaking (200 rpm).
This culture was then diluted 100-fold in favourable LB medium (0.6 ml of culture for 60 ml of favourable LB), and then this suspension was used immediately to seed the 100 cupules of a “Biotype 100”® plate, in a proportion of 450 μl of suspension per cupule.
After incubation for 36 hours in an incubator at 37° C., the activity of the iagA′-lacZcat fusion in the Ty267 strain was determined for the culture of each cupule.
By comparing the value of the P-galactosidase activity measured in a cupule containing a carbon-based substrate with that of the control cupule without substrate, it was possible to investigate whether a substrate had no effect on, activated or repressed the expression of the iagA′-lacZcat fusion.
The S. typhi strain Ty267 (iagA′-lacZ fusion), suspended in the favourable LB medium, was used to seed the “Biotype 100”® plates.
The β-galactosidase activity expressed by the iagA′-lacZ fusion was determined for the culture in each cupule. With respect to the β-galactosidase activity measured in the control cupule without substrate (11 250 β-galactosidase units), no substrate caused an increase in the expression of the iagA′-lacZ fusion.

Assay [2] deals with iagA′-lacZ fusion (S. typhi strain Ty267). The assay is described as follows: β-galactosidase activity of the iagA′-lacZ fusion in favourable LB medium. Conditions: fatty acid as sodium salt, 5 mM in favourable LB medium, 6 hours at 37° C.; control 22022 ± 1177. It is filed as cell-based. As for the experimental part:
(§2) The favourable LB medium (high osmolarity and concentration of Ca^2+ions) was defined as being the standard LB medium modified so as to have a final NaCl concentration of 300 mM and a final Ca concentration of 5 mM.
Each of the strains described above was cultured at 37° C. on agar or in TCS broth. The P-galactosidase activity was determined using 4-methyl-umbelliferyl-p-D-galactopyranoside sold by the company Sigma, according to the technique of Klarsfeld et al. (Mol. Mibrobiol., 1994, 13, 585-597). The results, expressed in P-galactosidase units (fluorescence per hour and per OD600), represent the mean of the values obtained in at least three independent experiments. The standard deviations were less than 10% of the values presented. […]
The β-galactosidase activity of the iagA′-lacZ fusion was measured after incubation for 6 hours at 37° C. with shaking (200 rpm).
The S. typhi Ty267 strain (iagA′-lacZ fusion) was seeded into favourable LB medium and into favourable LB medium containing the fatty acid to be tested, in the form of its sodium salt, at the final concentration of 5 mM.

In assay [3] the test system is sipB′-lacZ fusion (S. typhi strain Ty277). The assay can be described thus: β-galactosidase activity of the sipB′-lacZ fusion in favourable LB medium. It is filed as cell-based. As for the experimental part:
as §2, §1
For this, the S. typhi strains Ty267, Ty272 and Ty277, which carry the iagA′-lacZ, invF′-lacZ and sipB′-lacZ fusions, respectively, (see Table I), were cultured in the favourable LB or unfavourable LB medium.
The action of these two compounds on the expression of the iagA′-lacZ, invF′-lacZ and sipB′-lacZ fusions was studied by measuring the β-galactosidase activity expressed by these fusions as a function of the time of culturing (samples removed every two hours).

The subject of a further assay is S. typhi strain Ty2. The assay can be described thus: Mobility by the U-tube culturing technique. It is filed as cell-based. Conditions: U tube supplemented with 5 mM. As for the experimental part:
The mobility of each strain was studied using the U-tube culturing technique (Popoff and Le Minor, Guide pour la preparation des serum anti-Salmonella (Guide for preparing salmonella antisera], 1997). When necessary, the culture media were supplemented with chloramphenicol (Cm) at 15 μg/ml.

The test system of the next assay is S. enteritidis LA5. The assay is described as follows: Splenic colonization of C57Bl/6 mice infected orally with S. enteritidis LA5. The note with it: 50 mM in drinking water pH 7.2-7.3; 10^7 bacteria per animal orally; distilled water 7.5 ± 0.3. It is filed as in vivo. As for the experimental part: They were infected orally in the following way. The Salmonella strains were cultured in TCS broth for 18 hours at 37° C. with shaking (200 rpm). This culture was then adjusted to […] (in the stationary growth phase, 1 OD600 =1.5 ×10^9 bacteria/ml), and then the number of viable bacteria was controlled by counting on TCS agar.
On the day of infection (DO), the drinking-water bottles of the mice were replaced with bottles containing 100 ml of drinking water to which the required number of bacteria had been added.
After infection for 24 hours ([…]), the bottles containing the contaminated drinking water were replaced with bottles containing uncontaminated drinking water.
Seven days after infection (D+7), the spleens of the mice infected in this way were removed and homogenized separately in 1 ml of physiological saline containing 0.7% of NaCl.
The number of viable bacteria per spleen was determined by plating out dilutions of the homogenate, onto TCS agar.
The S. dublin strain 5917 (Coynault & Norel, Microb. Pathog., 1999, 26, 299-305) and S. enteritidis strain LAS (Thorns et al., Microb. Pathog., 1996, 20, 235-246) were used to infect C57B1/6 mice orally at the dose of 10^7 bacteria per animal.

Assay [4] concerns iagA′-lacZ fusion (S. typhi strain Ty267). The assay is described as follows: β-galactosidase activity of the iagA′-lacZ fusion in favourable LB medium. It is filed as cell-based.
For the next assay, the system named is S. typhi. The note with it: 1.25 g/l; cited from earlier work.
Another assay deals with Vibrio cholerae. Conditions: 1.25 g/l; cited from earlier work.
The test system of assay [5] is enteropathogenic and enterotoxigenic E. coli. The note with it: 1.25 g/l; cited from earlier work.
In assay [6] the test system is Gram-positive or Gram-negative microorganisms. Conditions: acid pH (free acid form); cited from earlier work.
Setting [7] is: concentration greater than or equal to 2.5 mM, favourable LB medium.

On to `CCCCCCCC(=O)[O-].[Na+]` [sodium caprylate], for which, in assay [1], the “β-galactosidase activity expressed by the iagA′-lacZ fusion in the cupule” value is given as 47 β-galactosidase units. In addition, the “β-Galactosidase activity of the iagA′-lacZ fusion (Table VII)” value in assay [2] is given as 445 ± 69 β-galactosidase units. Besides, the “β-galactosidase activity expressed by the sipB′-lacZ fusion as % of that in favourable LB medium without the substance” value in assay [3] (1 mM in favourable LB medium) was around 20%. Further, the “expression of the sipB gene (sipB′-lacZ fusion)” value in [3] (setting [7]) is recorded as “very strongly represses”. Besides, in the assay on S. typhi strain Ty2, the “mobility of the Ty2 strain” value is “same mobility”. Further, the “Number of viable bacteria in the spleen (mean in log10)” value in the assay with S. enteritidis LA5 was 3.7 ± 0.4 log10. The “β-galactosidase activity expressed by the iagA′-lacZ fusion as % of that in favourable LB medium without the substance” value in assay [4] (1 mM in favourable LB medium) is given as around 20%. The “expression of the iagA gene (iagA′-lacZ fusion)” value in assay [4] (setting [7]) is reported as “very strongly represses”. The “bactericidal activity in vitro on S. typhi” value with S. typhi is on record as “no bactericidal activity”. In addition, the “bactericidal activity in vitro on Vibrio cholerae” value in the assay on Vibrio cholerae is given as “no bactericidal activity”. In addition, in assay [5], the “bactericidal activity in vitro on enteropathogenic and enterotoxigenic E. coli” value was “no bactericidal activity”. For the same molecule, in assay [6], the “bactericidal activity on a great variety of Gram-positive or Gram-negative microorganisms” value was “bactericidal activity”.
